Experiments:
[1] = tested on: mc^27000:Δc− strain with pYL60 or pYL3; format: cell-based, M. tuberculosis
pYL42 and pYL53 strains = format: cell-based, Mycobacterium smegmatis

## CN[C@@H]1[C@H](O)[C@H](NC)[C@H]2O[C@]3(O)[C@H](O[C@@H]2[C@H]1O)O[C@H](C)C[C@H]3NC(=O)Cc1ccc(Cl)cn1 [Spa]
[1]
  bactericidal activity against pYL60 strain compared with pYL3 control strain: significantly decreased
pYL42 and pYL53 strains
  bactericidal activity against pYL53 compared with pYL42 strain: at least an order of magnitude lower
